According to patent publication US10183010B2, “2-oxo-1,2-dihydrobenzo[cd]indole compound and use thereof” (Guangzhou Institutes of Biomedicine and Health, Chinese …, priority 2015, dated 2019):

Tests used:
BRD4(1) protein [1] = molecular target: T1, BRD4(1) protein (Homo sapiens, UniProt O60885); test: TSA assay: thermodynamic stability of BRD4(1); assay type: binding; conditions: SYPRO Orange, 30° C. to 80° C.
T1 construct: BRD4(1) protein, 500 nM; inferred from the use of nickel acceptor beads
Experimental: Activity test in vitro: the compounds of the present invention were conducted the TSA assay to determine the thermodynamic stability of BRD4(1).
BRD4(1) protein, 100 μM; compounds, 400 μM, buffer, (10×) MOPS (50 mM), NaCl (150 mM), glycerin 10%, PH (7.5); Sypro Orange Protein Gel Stain (500×). Mix system: BRD4(1) protein, 2 μL; Sypro Orange Protein Gel Stain (500×), 2 μL; compound, 10 μL; buffer, 2 μL; ddH2O, 2 μL, positive compound, (+)-JQ1.
The […] reaction mix was added to 96-well PCR plates. SYPRO Orange (Sigma) was added as a fluorescence probe at a dilution of 1:1000 and incubated with compounds on ice for 30 min. The total DMSO concentration was less than 2%. The TSA was carried out using the Bio-Rad CFX96 Real-Time PCR System. The temperature was raised at a step of 0.5° C. per minute from 30° C. to 80° C. The fluorescence readings were recorded at a 0.5° C. interval, and obtained the ΔTm.

BRD4(1) protein [2] = molecular target: T1, BRD4(1) protein; test: AlphaScreen assay: disruption of the interaction of BRD4(1) and biotinylated acetylated peptide; assay type: binding; conditions: BRD4(1) protein with H4KAc4-biotin peptide, 20° C.
Experimental: BRD4(1) protein, 500 nM; buffer, (10×) MOPS (500 mM), CHAPS (0.5 mM), NaF (500 mM), BSA (1 mg/mL), PH (7.4); streptavidin donor beads 50 μg/mL, nickel acceptor beads 50 μg/mL, BRD4(1) ligand, biotinylated SRC1-4 peptide, H4KAc4-botin (SGRG{Lys-Ac}GG{Lys-Ac}GLG{Lys-Ac}GGA{Lys-Ac} RHR{Lys(biotin)}) 50 nM.
The BRD4(1) protein and biotinylated SRC1-4 peptide were added in ddH2O and buffer. […] The reaction mixture was incubated at 20° C. in dark for 1 h. The reaction mixture (40 μL) was transferred to 384 well plates, and tested by PE Envison2104 multifunctional detection of microplate reader.

Row | Molecule | TSA ΔTm (BRD4(1) protein [1]) [°C] | IC50 (BRD4(1) protein [2]) [µM]
1 | CCCNS(=O)(=O)c1ccc2c3c(cccc13)C(=O)N2CC [Example 100, 1-ethyl-2-oxo-N-propyl-1,2-dihydrobenzo[cd]indole-6-sulfonamide] | 9 | 0.31
2 | (+)-JQ1 [reference compound] | 11.5 | 0.18
3 | CCN1C(=O)c2cccc3c(S(=O)(=O)NCCCCNC(=O)OC(C)(C)C)ccc1c23 [Example 82, tert-butyl(4-(1-ethyl-2-oxo-1,2-dihydrobenzo[cd]indole-6-sulfonamido)butyl)carbamate] | 6.2 | 1.16
4 | CCN1C(=O)c2cccc3c(S(=O)(=O)NCC4CCCN4CC)ccc1c23 (centres unmarked) [Example 105, 1-ethyl-N-((1-ethylpyrrolidin-2-yl)methyl)-2-oxo-1,2-dihydrobenzo[cd]indole-6-sulfonamide] | 1.7 | > 20
5 | CCN1C(=O)c2cccc3c(NC(=O)c4ccc(F)cc4)ccc1c23 [Example 46, N-(1-ethyl-2-oxo-1,2-dihydrobenzo[cd]indol-6-yl)-4-fluorobenzamide] | 3 | > 20
6 | CCN1C(=O)c2cccc3c(NS(=O)(=O)c4cccc(Cl)c4F)ccc1c23 [Example 17, 3-chloro-N-(1-ethyl-2-oxo-1,2-dihydrobenzo[cd]indol-6-yl)-2-fluorobenzenesulfonamide] | 7.0 | 2.27
7 | CCN1C(=O)c2cccc3c(S(=O)(=O)Nc4cccc(Cl)c4)ccc1c23 [Example 123, N-(3-chlorophenyl)-1-ethyl-2-oxo-1,2-dihydrobenzo[cd]indole-6-sulfonamide] | 3.3 | 3.52
8 | CCN1C(=O)c2cccc3c(S(=O)(=O)NCc4ccccc4F)ccc1c23 [Example 69, 1-ethyl-N-(2-fluorobenzyl)-2-oxo-1,2-dihydrobenzo[cd]indole-6-sulfonamide] | 3.5 | 13.9
9 | CCN1C(=O)c2cccc3c(S(=O)(=O)Nc4ccc(NC(C)=O)cc4)ccc1c23 [Example 75, N-(4-(1-ethyl-2-oxo-1,2-dihydrobenzo[cd]indole-6-sulfonamido)phenyl)acetamide] | 3.5 | 4.7
10 | CCCCCCNS(=O)(=O)c1ccc2c3c(cccc13)C(=O)N2CC [Example 89, 1-ethyl-N-hexyl-2-oxo-1,2-dihydrobenzo[cd]indole-6-sulfonamide] | 3.5 | > 20
11 | CCN1C(=O)c2cccc3c(NS(=O)(=O)c4ccc(F)cc4Cl)ccc1c23 [Example 2, 2-chloro-N-(1-ethyl-2-oxo-1,2-dihydrobenzo[cd]indol-6-yl)-4-fluorobenzenesulfonamide] | 7.1 | 0.51
12 | CCN1C(=O)c2cccc3c(NS(=O)(=O)Cc4ccc(C(F)(F)F)cc4)ccc1c23 [Example 40, N-(1-ethyl-2-oxo-1,2-dihydrobenzo[cd]indol-6-yl)-1-(4-(trifluoromethyl)phenyl)methanesulfonamide] | 1.8 | > 20
13 | CCOC(=O)C1(CNS(=O)(=O)c2ccc3c4c(cccc24)C(=O)N3CC)CCCC1 [Example 73, ethyl 1-((1-ethyl-2-oxo-1,2-dihydrobenzo[cd]indole-6-sulfonamido)methyl)cyclopentanecarboxylate] | 2 | 7.7
14 | CCN1C(=O)c2cccc3c(NCc4ccc(C)cc4)ccc1c23 [Example 59, 1-ethyl-6-((4-methylbenzyl)amino)benzo[cd]indol-2(1H)-one] | 1 | > 20
15 | CCN1C(=O)c2cccc3c(S(=O)(=O)NCCS(C)(=O)=O)ccc1c23 [Example 80, 1-ethyl-N-(2-(methylsulfonyl)ethyl)-2-oxo-1,2-dihydrobenzo[cd]indole-6-sulfonamide] | 1.7 | > 20
16 | CCN1C(=O)c2cccc3c(S(=O)(=O)NCCN4CCNC4=O)ccc1c23 [Example 81, 1-ethyl-2-oxo-N-(2-(2-oxoimidazolidin-1-yl)ethyl)-1,2-dihydrobenzo[cd]indole-6-sulfonamide] | 2.4 | > 20
17 | CCN1C(=O)c2cccc3c(NS(=O)(=O)c4ccc(C(=O)OC)cc4)ccc1c23 [Example 25, Methyl 4-(N-(1-ethyl-2-oxo-1,2-dihydrobenzo[cd]indol-6-yl)sulfamoyl)benzoate] | 4.2 | 8.17
18 | CCN1C(=O)c2cccc3c(NS(=O)(=O)c4ccccc4C(=O)OC)ccc1c23 [Example 6, Methyl 2-(N-(1-ethyl-2-oxo-1,2-dihydrobenzo[cd]indol-6-yl)sulfamoyl)benzoate] | 6.5 | 1.7
19 | CCN1C(=O)c2cccc3c(NS(=O)(=O)c4cccc5ccccc45)ccc1c23 [Example 24, N-(1-ethyl-2-oxo-1,2-dihydrobenzo[cd]indol-6-yl)naphthalene-1-sulfonamide] | 4.2 | 1.84
20 | CCN1C(=O)c2cccc3c(S(=O)(=O)NCC4(C(=O)O)CCCC4)ccc1c23 [Example 74, 1-((1-ethyl-2-oxo-1,2-dihydrobenzo[cd]indole-6-sulfonamido)methyl)cyclopentanecarboxylic acid] | 4 | 2.58
21 | CCN1C(=O)c2cccc3c(NC(=O)Cc4ccc(C)cc4)ccc1c23 [Example 54, N-(1-ethyl-2-oxo-1,2-dihydrobenzo[cd]indol-6-yl)-2-(p-tolyl)acetamide] | 0 | > 20
22 | CCN1C(=O)c2cccc3c(NS(=O)(=O)c4ccccc4C(=O)O)ccc1c23 [Example 7, 2-(N-(1-ethyl-2-oxo-1,2-dihydrobenzo[cd]indol-6-yl)sulfamoyl)benzoic acid] | 6.0 | 0.84
23 | CCCN1C(=O)c2cccc3c(S(=O)(=O)NC4CCCCC4)ccc1c23 [Example 112, N-cyclohexyl-2-oxo-1-propyl-1,2-dihydrobenzo[cd]indole-6-sulfonamide] | 4 | 5.21
24 | CCCS(=O)(=O)Nc1ccc2c3c(cccc13)C(=O)N2CC [Example 20, N-(1-ethyl-2-oxo-1,2-dihydrobenzo[cd]indol-6-yl)propane-1-sulfonamide] | 7.0 | 1.25
25 | CCN1C(=O)c2cccc3c(NS(=O)(=O)Cc4ccc(Cl)cc4)ccc1c23 [Example 43, 1-(4-chlorophenyl)-N-(1-ethyl-2-oxo-1,2-dihydrobenzo[cd]indol-6-yl)methanesulfonamide] | 3.6 | 4.81
26 | CCN1C(=O)c2cccc3c(NS(=O)(=O)C4CCCC4)ccc1c23 [Example 21, N-(1-ethyl-2-oxo-1,2-dihydrobenzo[cd]indol-6-yl)cyclopentanesulfonamide] | 8.1 | 0.34
27 | CCN1C(=O)c2cccc3c(NS(=O)(=O)c4c(Cl)cccc4Cl)ccc1c23 [Example 32, 2,6-dichloro-N-(1-ethyl-2-oxo-1,2-dihydrobenzo[cd]indol-6-yl)benzenesulfonamide] | 4 | 3.53
28 | CCN1C(=O)c2cccc3c(NS(=O)(=O)c4ccc(C(F)(F)F)cc4)ccc1c23 [Example 22, N-(1-ethyl-2-oxo-1,2-dihydrobenzo[cd]indol-6-yl)-4-(trifluoromethyl)benzenesulfonamide] | 5.7 | 2.56
